Experimental data published in patent US7018989B2, “Chemical compounds” (University College Cardiff Consultants, LTD, priority 1995, dated 2006).
pEC50: −log10 of the molar value. Structures can show the parent of a compound that is named as a salt. Where two headings read alike, the source gives them in different places.

What was measured:
HIV-1 = test: microbe, parasite or virus in culture; details: read-out: HIV1 CEM: EC50 for inhibition of HIV-1 in CEM cells
Description: (§1) Cells were infected with HIV-1 as previously described [Balzarini et al. AIDS (1991), 5, 21–28]. Briefly, 5×10^5 cells per milliliter were infected with HIV-1 or HIV-2 at 100 CCID50 (50% cell culture infective dose) per milliliter of cell suspension. Then 100 μL of the infected cell suspension was transferred to microtiter plate wells and mixed with 100 μL of the appropriate dilutions of the test compounds. After 4 days giant cell formation was recorded microscopically in the HIV-infected cell cultures [CEM], and after 5 days the number of viable cells was determined by trypan blue staining of the HIV-infected cell cultures [MT4].
(§2) The data columns are, in order: • HIV1 MT4: EC50 in μM for inhibition of HIV-1 in MT4 cells. • HIV2 MT4: EC50 in μM for inhibition of HIV-2 in MT4 cells. • CC50 MT4: CC50 in μM for toxicity to MT-4 cells. • HIV1 CEM: EC50 in μM for inhibition of HIV-1 in CEM cells. • HIV2 CEM: EC50 in μM for inhibition of HIV-2 in CEM cells. • HIV2 CEM-TK-: EC50 in μM for inhibition of HIV-2 in CEM/TK^− cells. • CC50 CEM: CC50 in μM for toxicity to CEM cells. • EC50 MSV: EC50 in μM for inhibition of MSV • MCC MSV: Minimum cytotoxic concentration in MSV assay

HIV-2 [1] = test: Inhibition of HIV-2 in CEM cells (giant cell formation); assay type: cell-based; details: read-out: HIV2 CEM: EC50 for inhibition of HIV-2 in CEM cells
Description: as §1, §2

HIV-2 [2] = test: Inhibition of HIV-2 in CEM/TK- cells; assay type: cell-based
Description: as §1, §2

[3] = Table 6, mean of two or more repeat experiments
[4] = CEM/TK- cells, HIV-2, read-out: HIV2 CEM-TK-: EC50 for inhibition of HIV-2 in CEM/TK- cells
[5] = Table 6, mean of two or more repeat experiments, read-out: HIV2 CEM-TK-: EC50 for inhibition of HIV-2 in CEM/TK^− cells

Cc1cn(C2C=CC(COP(=O)(NC(C)C(=O)OCCc3ccccc3)Oc3ccccc3)O2)c(=O)[nH]c1=O (stereo not drawn) [Compound 1220] showed a pEC50 (HIV-1; [3]) of 6.15.
In the case of Cc1cn(C2C=CC(COP(=O)(NC(C)C(=O)OCC3CCCCC3)Oc3ccccc3)O2)c(=O)[nH]c1=O (stereo not drawn) [Compound 1189], the pEC50 (HIV-1; [3]) was 7.40.
Molecule COC(=O)C(C)NP(=O)(OCC1OC(n2ccc(=O)[nH]c2=O)CC1N=[N+]=[N-])Oc1ccccc1 (stereo not drawn) [Cpd 571] has a pEC50 (HIV-1; CEM cells, HIV-1) of less than 3.69, a pEC50 (HIV-2 [1]; CEM cells, HIV-2) of less than 3.69 and a pEC50 (HIV-2 [2]; [4]) of 3.93.
For CCCCNP(=O)(OCC1C=CC(n2cc(C)c(=O)[nH]c2=O)O1)OCC(F)(F)F (stereo not drawn) [Compound 504], the pEC50 (HIV-1; [3]) was 4.14, the pEC50 (HIV-2 [1]; [3]) was 3.94 and the pEC50 (HIV-2 [2]; [5]) was no more than 3.65.
CCOP(=O)(OCC)OCC1C=CC(n2ccc(=O)[nH]c2=O)O1 (stereo not drawn) [Compound 551] showed a pEC50 (HIV-1; [3]) of less than 4.24, a pEC50 (HIV-2 [1]; [3]) of less than 4.24 and a pEC50 (HIV-2 [2]; [5]) of less than 4.24.
For COC(=O)CCC(NP(=O)(OCC1C=CC(n2cc(C)c(=O)[nH]c2=O)O1)Oc1ccccc1)C(=O)OC (stereo not drawn) [Compound 1196, 2′,3′-Dideoxy-2′,3′-didehydrothymidine-5′-(phenyldimethoxyglutaminyl phosphoramidate], the pEC50 (HIV-1; [3]) was 5.92.
Cc1cn([C@H]2C=C[C@@H](COP(=O)(N[C@@H](C)C(=O)OCC(C)(C)C)Oc3ccccc3)O2)c(=O)[nH]c1=O (stereo partly drawn) [Compound 1219] gave a pEC50 (HIV-1; [3]) greater than 7.10.
CCCCCCNP(=O)(OCC1OC(n2cc(C)c(=O)[nH]c2=O)CC1N=[N+]=[N-])Oc1ccccc1 (stereo not drawn) [Cpd 657] was tested, and the pEC50 (HIV-1; CEM cells, HIV-1) was less than 4.40, the pEC50 (HIV-2 [1]; CEM cells, HIV-2) was less than 4.40 and the pEC50 (HIV-2 [2]; [4]) was less than 4.74.
Cc1cn(C2C=CC(CNP(=O)(OC(C)C)OC(C)C)O2)c(=O)[nH]c1=O (stereo not drawn) [Compound 479] gave a pEC50 (HIV-1; [3]) of less than 3.59, a pEC50 (HIV-2 [1]; [3]) of less than 3.59 and a pEC50 (HIV-2 [2]; [5]) of less than 3.59.
With O=c1ccn(C2C=CC(COP(=O)(OCC(Cl)(Cl)Cl)OCC(Cl)(Cl)Cl)O2)c(=O)[nH]1 (stereo not drawn) [Compound 562] the pEC50 (HIV-1; [3]) was less than 4.44, the pEC50 (HIV-2 [1]; [3]) was less than 4.44 and the pEC50 (HIV-2 [2]; [5]) was less than 4.44.
With COC(=O)C(C)NP(=O)(OCC1C=CC(n2ccc(=O)[nH]c2=O)O1)Oc1ccccc1 (stereo not drawn) [Compound 558] the pEC50 (HIV-1; [3]) was less than 4.36, the pEC50 (HIV-2 [1]; [3]) was less than 4.36 and the pEC50 (HIV-2 [2]; [5]) was less than 4.36.
In the case of Cc1cn(C2C=CC(COP(=O)(O)NC(CC(C)C)C(=O)O)O2)c(=O)[nH]c1=O (stereo not drawn) [Compound 1192, 2′,3′-dideoxy-2′,3′-didehydrothymidine 5′-(leucinyl phosphate)], the pEC50 (HIV-1; [3]) was 5.85.
Work on COC(=O)C(NP(=O)(OCC1C=CC(n2cc(C)c(=O)[nH]c2=O)O1)OCC(Cl)(Cl)Cl)C(C)C (stereo not drawn) [Compound 322] yielded a pEC50 (HIV-1; [3]) of 4.54, a pEC50 (HIV-2 [1]; [3]) of 4.15 and a pEC50 (HIV-2 [2]; [5]) of 4.23.
Cc1cn(C2C=CC(COP(=O)(O)OCC(Cl)(Cl)Cl)O2)c(=O)[nH]c1=O (stereo not drawn) [Compound 407] was tested, and the pEC50 (HIV-2 [1]; [3]) was 6.30 and the pEC50 (HIV-2 [2]; [5]) was 4.07.
With COC(=O)C[C@H](NP(=O)(OC[C@@H]1C=C[C@H](n2cc(C)c(=O)[nH]c2=O)O1)Oc1ccccc1)C(=O)OC (stereo partly drawn) [Compound 1214, 2′,3′-Dideoxy-2′,3′-didehydrothymidine-5′-(phenyldimethoxyasparaginyl) phosphoramidate] the pEC50 (HIV-1; [3]) was 6.22.
With CCCCNP(=O)(OCC1OC(n2cc(C)c(=O)[nH]c2=O)CC1N=[N+]=[N-])Oc1ccccc1 (stereo not drawn) [Cpd 659] the pEC50 (HIV-1; CEM cells, HIV-1) was less than 4.38, the pEC50 (HIV-2 [1]; CEM cells, HIV-2) was less than 4.38 and the pEC50 (HIV-2 [2]; [4]) was less than 4.38.
CCCNP(=O)(OCC)OCC1C=CC(n2cc(C)c(=O)[nH]c2=O)O1 (stereo not drawn) [Compound 563] gave a pEC50 (HIV-1; [3]) of less than 3.57, a pEC50 (HIV-2 [1]; [3]) of less than 3.57 and a pEC50 (HIV-2 [2]; [5]) of less than 3.57.
Work on COC(=O)CCCCCNP(=O)(OCC1C=CC(n2cc(C)c(=O)[nH]c2=O)O1)Oc1ccccc1 (stereo not drawn) [Compound 1199, 2′,3′-Dideoxy-2′,3′-didehydrothymidine-5′-(phenylmethoxy-6-aminocaproyl) phosphate] yielded a pEC50 (HIV-1; [3]) of less than 3.60.
Cc1cn(C2C=CC(COP(=O)(NC(C)C(=O)Oc3ccc4ccccc4c3)Oc3ccccc3)O2)c(=O)[nH]c1=O (stereo not drawn) [Compound 1227] was tested, and the pEC50 (HIV-1; [3]) was greater than 7.10.
Molecule COC(=O)C(Cc1c[nH]c2ccccc12)NP(=O)(OC[C@@H]1C=C[C@H](n2cc(C)c(=O)[nH]c2=O)O1)Oc1ccccc1 (stereo partly drawn) [Compound 1215, 2′,3′-Dideoxy-2′,3′-didehydrothymidine-5′-(phenylmethoxytryptophanyl) phosphoramidate] has a pEC50 (HIV-1; [3]) of 5.40.
CCCCNP(=O)(OCC1C=CC(n2cc(C)c(=O)[nH]c2=O)O1)OCC(Cl)(Cl)Cl (stereo not drawn) [Compound 402] was tested, and the pEC50 (HIV-1; [3]) was 3.93, the pEC50 (HIV-2 [1]; [3]) was less than 3.69 and the pEC50 (HIV-2 [2]; [5]) was 3.79.
In the case of Cc1cn(C2C=CC(COP(=O)(NC(C)C(=O)Oc3cccc4ccccc34)Oc3ccccc3)O2)c(=O)[nH]c1=O (stereo not drawn) [Compound 1226], the pEC50 (HIV-1; [3]) was greater than 7.10.
[N-]=[N+]=NC1CC(n2ccc(=O)[nH]c2=O)OC1CO (stereo not drawn) [Cpd 569] was tested, and the pEC50 (HIV-1; CEM cells, HIV-1) was less than 3.40, the pEC50 (HIV-2 [1]; CEM cells, HIV-2) was less than 3.40 and the pEC50 (HIV-2 [2]; [4]) was less than 3.40.
CC[C@H](C)[C@H](NP(=O)(OCC1C=CC(n2cc(C)c(=O)[nH]c2=O)O1)Oc1ccccc1)C(=O)OC (stereo partly drawn) [Compound 1186, 2′,3′-dideoxy-2′,3′-didehydrothymidino 5′-(phenylmethoxyisoleucinyl phosphate)] showed a pEC50 (HIV-1; [3]) of 5.30.
With Cc1cn(C2C=CC(COP(=O)(O)NC(C(=O)O)C(C)C)O2)c(=O)[nH]c1=O (stereo not drawn) [Compound 1190, 2′,3′-dideoxy-2′,3′-didehydrothymidine 5′-(valinyl phosphate)] the pEC50 (HIV-1; [3]) was 6.15.
Cc1cn(C2C=CC(COP(=O)(Oc3ccccc3)N3CCCC3C(=O)O)O2)c(=O)[nH]c1=O (stereo not drawn) [Compound 1194, 2′,3′-dideoxy-2′,3′-didehydrothymidine 5′-(phenylprolinyl phosphate)] was tested, and the pEC50 (HIV-1; [3]) was 5.22.
In the case of Cc1cn(C2C=CC(COP(=O)(O)NCCC(=O)O)O2)c(=O)[nH]c1=O (stereo not drawn) [Compound 1216, 2′,3′-Dideoxy-2′,3′-didehydrothymidine-5′-(β-alaninyl) phosphate ammonium salt], the pEC50 (HIV-1; [3]) was 6.15.
With CCCCCOC(=O)C(C)NP(=O)(OCC1C=CC(n2cc(C)c(=O)[nH]c2=O)O1)Oc1ccccc1 (stereo not drawn) [Compound 1218] the pEC50 (HIV-1; [3]) was greater than 7.10.
COC(=O)C(C)(C)NP(=O)(OCC1C=CC(n2cc(C)c(=O)[nH]c2=O)O1)Oc1ccccc1 (stereo not drawn) [Compound 1200, 2′,3′-Dideoxy-2′,3′-didehydrothymidine-5′-(phenylmethoxy-2-aminoisobutylryl) phosphate] gave a pEC50 (HIV-1; [3]) of 6.92.
Work on CCC(NP(=O)(OCC1C=CC(n2cc(C)c(=O)[nH]c2=O)O1)Oc1ccccc1)C(=O)OC (stereo not drawn) [Compound 1198, 2′,3′-Dideoxy-2′,3′-didehydrothymidine-5′-(phenylmethoxy-α-aminobutylryl) phosphate] yielded a pEC50 (HIV-1; [3]) of less than 3.60.
With Cc1cn([C@H]2C=C[C@@H](COP(=O)(O)NC(Cc3ccccc3)C(=O)O)O2)c(=O)[nH]c1=O (stereo partly drawn) [Compound 1187, 2′,3′-dideoxy-2′,3′-didehydrothymidine 5′-(phenylalaninyl phosphate)] the pEC50 (HIV-1; [3]) was 5.46.
COC(=O)C(C)NP(=O)(OCC1CCC(n2cc(C)c(=O)[nH]c2=O)O1)Oc1ccccc1 (stereo not drawn) [Cpd 1225] gave a pEC50 (HIV-1; CEM cells, HIV-1) of 5.92.
Molecule CCCCCC(=O)OP(=O)(O)OC[C@@H]1C=C[C@H](n2cc(C)c(=O)[nH]c2=O)O1 [Compound 1217, 2′,3′-Dideoxy-2′,3′-didehydrothymidine-5′-(caproyl) phosphate ammonium salt] has a pEC50 (HIV-1; [3]) of 5.85.
With COC(=O)CCNP(=O)(OCC1C=CC(n2cc(C)c(=O)[nH]c2=O)O1)Oc1ccccc1 (stereo not drawn) [Compound 1197, 2′,3′-Dideoxy-2′,3′-didhydrothymidine-5′-(phenylmethoxy-B-alaninyl) phosphate] the pEC50 (HIV-1; [3]) was less than 3.60.
With Cc1cn([C@H]2C=C[C@@H](COP(=O)(O)OC(=O)CCCN)O2)c(=O)[nH]c1=O [Compound 1224, 2′,3′-Dideoxy-2′,3′-didehydrothymidine-5′(γ-aminobutylryl) phosphate ammonium salt] the pEC50 (HIV-1; [3]) was 6.00.
